Results as given in patent publication US20020151481A1, “MMP-2 propeptide for use as antiangiogenic or antitumor agent” (priority 2000, published 2002).

Assay: Viability of cultured chondrosarcoma cells (crystal violet nuclear staining, OD590)
Assay type: cell-based
Conditions: human, human chondrosarcoma cell line; crystal violet OD590 (FIG. 5); concentration not given; read-out: decrease in viable cell number
Procedure: Animal Cell Experiments. The effects of the MMP-2 propeptide on viability and metabolism of cultured animal cells was observed. A human chondrosarcoma cell line was cultured in both the presence and absence of 50 μg/ml recombinant MMP-2 propeptide (serum-free). Cultures were observed over a 48 hours period. Cell viability was monitored via crystal violet nuclear staining and absorption spectroscopy (OD590). Absorbance is proportional to cell number (Gillies, 1986, Anal. Biochem. 159:109-113). […] That MMP-2 had no effect on the cultured cancer cell line was not unexpected since the effects of angiogenesis inhibitors (such as angiostatin and endostatin) are believed to be restricted to […] endothelial cells.

COc1cc2c(cc1O)CCN[C@]21CS[C@@H]2c3c(OC(C)=O)c(C)c4c(c3[C@H](COC1=O)N1[C@@H]2[C@H]2c3c(cc(C)c(OC)c3O)C[C@@H]([C@@H]1O)N2C)OCO4 [ET-743]
cytotoxicity at 48 h: 50%
